# ChEMBL document CHEMBL1743341, “Cytochrome p450 enzymes mechanism based inhibitors: common sub-structures and reactivity” (Curr Drug Metab, 2005)
# How the values were obtained:
# Cytochrome P450 3A5 = Cytochrome P450 3A5 (Homo sapiens, UniProt P20815); assay: Mechanism based inhibition of human cytochrome P450 3A5 measured by testosterone hydroxylation; format: ADME
# Cytochrome P450 2E1 [1] = biological target: T1, Cytochrome P450 2E1 (Homo sapiens, UniProt P05181); assay: (§1) Mechanism based inhibition of human cytochrome P450 2E1; format: ADME
# T1 sequence (P05181 whole entry): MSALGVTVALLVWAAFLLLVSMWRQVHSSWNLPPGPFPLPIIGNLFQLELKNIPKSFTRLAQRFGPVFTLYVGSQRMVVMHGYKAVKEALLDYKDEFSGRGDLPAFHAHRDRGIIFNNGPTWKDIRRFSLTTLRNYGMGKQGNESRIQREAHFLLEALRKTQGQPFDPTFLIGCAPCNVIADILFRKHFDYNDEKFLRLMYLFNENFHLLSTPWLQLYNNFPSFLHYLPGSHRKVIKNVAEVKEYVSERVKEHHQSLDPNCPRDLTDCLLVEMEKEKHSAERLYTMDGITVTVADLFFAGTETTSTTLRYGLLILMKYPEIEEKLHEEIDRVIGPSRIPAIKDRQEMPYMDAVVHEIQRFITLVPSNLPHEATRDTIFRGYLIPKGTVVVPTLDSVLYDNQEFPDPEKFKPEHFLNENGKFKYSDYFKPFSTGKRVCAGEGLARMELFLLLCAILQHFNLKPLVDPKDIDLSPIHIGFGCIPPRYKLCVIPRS
# Cytochrome P450 2E1 [2] = biological target: T1, Cytochrome P450 2E1; assay: as §1; format: ADME; remark: listed apart in the source
# CYP3A4 [3] = biological target: T2, CYP3A4 (Homo sapiens, UniProt P08684); assay: (§2) Mechanism based inhibition of human cytochrome P450 3A4; format: ADME; conditions: human
# T2 sequence (P08684 whole entry): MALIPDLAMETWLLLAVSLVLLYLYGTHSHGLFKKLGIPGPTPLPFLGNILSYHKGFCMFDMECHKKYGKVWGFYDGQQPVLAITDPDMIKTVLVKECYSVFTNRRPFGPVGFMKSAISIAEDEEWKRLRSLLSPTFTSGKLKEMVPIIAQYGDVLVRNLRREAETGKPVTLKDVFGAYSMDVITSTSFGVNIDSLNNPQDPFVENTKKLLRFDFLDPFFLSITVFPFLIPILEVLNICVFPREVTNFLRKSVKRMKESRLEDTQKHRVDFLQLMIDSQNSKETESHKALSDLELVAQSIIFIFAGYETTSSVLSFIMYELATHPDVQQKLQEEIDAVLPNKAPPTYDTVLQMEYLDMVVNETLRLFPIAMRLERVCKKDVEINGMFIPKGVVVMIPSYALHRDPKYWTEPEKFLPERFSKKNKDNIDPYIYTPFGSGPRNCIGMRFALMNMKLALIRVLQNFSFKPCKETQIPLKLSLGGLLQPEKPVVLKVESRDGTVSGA
# Cytochrome P450 3A4 [4] = biological target: T3, Cytochrome P450 3A4 (Homo sapiens, UniProt P08684); assay: as §2; format: ADME
# T3 sequence (P08684 whole entry): as above
# CYP2B1 = biological target: T4, CYP2B1 (Rattus norvegicus, UniProt P00176); assay: (§3) Mechanism based inhibition of rat cytochrome P450 CYP2B1 measured by 7-EFC O-deethylation activity; format: ADME; conditions: rat, probe 7-EFC (O-deethylation)
# T4 sequence (P00176 whole entry): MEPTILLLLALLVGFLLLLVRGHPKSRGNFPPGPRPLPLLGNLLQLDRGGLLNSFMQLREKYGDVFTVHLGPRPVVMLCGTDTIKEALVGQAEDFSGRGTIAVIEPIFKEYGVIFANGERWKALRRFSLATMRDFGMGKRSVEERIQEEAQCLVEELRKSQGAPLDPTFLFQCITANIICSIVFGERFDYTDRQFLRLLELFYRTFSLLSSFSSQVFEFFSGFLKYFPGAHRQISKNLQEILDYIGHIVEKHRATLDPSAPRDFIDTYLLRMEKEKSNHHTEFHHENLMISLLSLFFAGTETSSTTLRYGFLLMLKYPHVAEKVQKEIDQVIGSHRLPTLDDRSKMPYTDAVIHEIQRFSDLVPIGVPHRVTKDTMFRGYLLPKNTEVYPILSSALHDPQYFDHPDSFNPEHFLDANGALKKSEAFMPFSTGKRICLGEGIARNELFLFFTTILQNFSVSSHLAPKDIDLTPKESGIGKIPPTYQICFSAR
# Cytochrome P450 2B1 [5] = biological target: T5, Cytochrome P450 2B1 (Rattus norvegicus, UniProt P00176); assay: as §3; format: ADME
# T5 sequence (P00176 whole entry): T4 sequence (P00176 whole entry)
# Cytochrome P450 2B1 [6] = biological target: T5, Cytochrome P450 2B1; assay: Mechanism based inhibition of rat cytochrome P450 CYP2B1 partition ratio; format: ADME
# CYP3A4 [7] = biological target: T2, CYP3A4; assay: (§4) Mechanism based inhibition of human cytochrome P450 3A4 measured by nifedipine oxidation, omeprazole 3-hydroxylation and omeprazole sulfoxydation; format: ADME; conditions: human
# Cytochrome P450 3A4 [8] = biological target: T3, Cytochrome P450 3A4; assay: as §4; format: ADME
# Cytochrome P450 3A4 [9] = biological target: T3, Cytochrome P450 3A4; assay: Mechanism based inhibition of human cytochrome P450 3A4 measured by testosterone 6-beta hydroxylation; format: ADME
# Cytochrome P450 2A6 = biological target: T6, Cytochrome P450 2A6 (Homo sapiens, UniProt P11509); assay: Mechanism based inhibition of human cytochrome P450 2A6; format: ADME
# T6 sequence (P11509 whole entry): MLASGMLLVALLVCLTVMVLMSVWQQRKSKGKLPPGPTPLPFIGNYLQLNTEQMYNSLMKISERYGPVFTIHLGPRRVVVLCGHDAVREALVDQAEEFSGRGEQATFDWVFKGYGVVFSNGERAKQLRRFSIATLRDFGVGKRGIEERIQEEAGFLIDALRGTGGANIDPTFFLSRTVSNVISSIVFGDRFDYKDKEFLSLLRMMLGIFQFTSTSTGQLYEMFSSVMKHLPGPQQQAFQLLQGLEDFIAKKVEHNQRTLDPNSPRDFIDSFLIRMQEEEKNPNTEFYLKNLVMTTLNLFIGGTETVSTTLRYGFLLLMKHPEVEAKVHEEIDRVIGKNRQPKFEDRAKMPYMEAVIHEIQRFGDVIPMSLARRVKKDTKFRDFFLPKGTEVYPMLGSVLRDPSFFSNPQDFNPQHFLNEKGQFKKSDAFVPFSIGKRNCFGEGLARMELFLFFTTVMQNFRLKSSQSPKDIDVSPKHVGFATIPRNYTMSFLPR
# Cytochrome P450 3A4 [10] = biological target: T3, Cytochrome P450 3A4; assay: Mechanism based inhibition of human cytochrome P450 3A4 measured by lovastatin 6'-beta hydroxylase activity; format: ADME
# Cytochrome P450 3A4 [11] = biological target: T3, Cytochrome P450 3A4; assay: Mechanism based inhibition of human cytochrome P450 3A4 measured in vivo; format: ADME, organism-based
# Cytochrome P450 2A13 = Cytochrome P450 2A13 (Homo sapiens, UniProt Q16696); assay: Mechanism based inhibition of human cytochrome P450 2A13 measured by coumarin 7-hydroxylation and testosterone 15-hydroxylation; format: ADME
# Sequence of Cytochrome P450 2A13 (Q16696 whole entry): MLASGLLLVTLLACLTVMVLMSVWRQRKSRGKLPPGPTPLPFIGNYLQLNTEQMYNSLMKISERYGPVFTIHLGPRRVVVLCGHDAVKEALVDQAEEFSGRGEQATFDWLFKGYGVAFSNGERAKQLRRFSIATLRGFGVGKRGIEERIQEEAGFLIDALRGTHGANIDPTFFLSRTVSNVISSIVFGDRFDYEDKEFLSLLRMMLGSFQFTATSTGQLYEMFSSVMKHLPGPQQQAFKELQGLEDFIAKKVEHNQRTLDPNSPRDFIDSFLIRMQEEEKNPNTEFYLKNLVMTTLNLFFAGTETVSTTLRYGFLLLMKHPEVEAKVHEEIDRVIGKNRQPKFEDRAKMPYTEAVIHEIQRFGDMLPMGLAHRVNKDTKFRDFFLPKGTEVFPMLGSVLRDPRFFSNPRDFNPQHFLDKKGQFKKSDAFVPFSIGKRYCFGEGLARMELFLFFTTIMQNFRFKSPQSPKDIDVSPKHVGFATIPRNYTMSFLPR
# Cytochrome P450 2D6 = Cytochrome P450 2D6 (Homo sapiens, UniProt P10635); assay: (§5) Mechanism based inhibition of human cytochrome P450 2D6 measured by dextromethorphan O-demethylation; format: ADME
# Sequence of Cytochrome P450 2D6 (P10635 whole entry): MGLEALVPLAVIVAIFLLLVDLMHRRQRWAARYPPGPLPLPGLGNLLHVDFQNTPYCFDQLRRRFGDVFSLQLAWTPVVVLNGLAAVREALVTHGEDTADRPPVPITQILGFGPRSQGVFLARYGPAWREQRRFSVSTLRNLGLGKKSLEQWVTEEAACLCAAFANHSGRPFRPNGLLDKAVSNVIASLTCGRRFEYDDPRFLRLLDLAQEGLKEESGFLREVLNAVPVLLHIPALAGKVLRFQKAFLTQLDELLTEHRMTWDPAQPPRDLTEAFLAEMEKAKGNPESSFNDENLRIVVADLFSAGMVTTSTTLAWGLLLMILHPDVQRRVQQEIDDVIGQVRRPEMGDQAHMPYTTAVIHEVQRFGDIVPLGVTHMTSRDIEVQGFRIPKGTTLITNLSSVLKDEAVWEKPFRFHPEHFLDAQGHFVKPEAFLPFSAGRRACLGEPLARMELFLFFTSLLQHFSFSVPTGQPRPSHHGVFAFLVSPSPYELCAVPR
# CYP2D6 = CYP2D6 (Homo sapiens, UniProt P10635); assay: as §5; format: ADME; conditions: human, probe dextromethorphan
# Sequence of CYP2D6 (P10635 whole entry): as above
# Cytochrome P450 1A2 = biological target: T7, Cytochrome P450 1A2 (Homo sapiens, UniProt P05177); assay: (§6) Mechanism based inhibition of human cytochrome P450 1A2 measured by 7-ethoxyresorufin O-deethylation (EROD)
# T7 sequence (P05177 whole entry): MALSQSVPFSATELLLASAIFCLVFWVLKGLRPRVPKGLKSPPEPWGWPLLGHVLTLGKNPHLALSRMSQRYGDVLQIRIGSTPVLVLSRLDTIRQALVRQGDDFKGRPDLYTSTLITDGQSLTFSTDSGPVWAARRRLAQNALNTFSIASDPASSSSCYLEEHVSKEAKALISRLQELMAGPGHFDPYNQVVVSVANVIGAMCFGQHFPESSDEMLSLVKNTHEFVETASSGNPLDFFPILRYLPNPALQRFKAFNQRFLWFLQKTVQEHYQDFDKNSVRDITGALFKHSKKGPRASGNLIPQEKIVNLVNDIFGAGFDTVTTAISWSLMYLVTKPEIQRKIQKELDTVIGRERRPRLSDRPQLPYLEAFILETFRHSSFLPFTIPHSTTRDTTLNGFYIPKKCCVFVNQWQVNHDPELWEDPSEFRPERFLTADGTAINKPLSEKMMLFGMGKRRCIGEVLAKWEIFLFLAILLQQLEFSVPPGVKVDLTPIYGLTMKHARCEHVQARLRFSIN
# CYP1A2 = biological target: T8, CYP1A2 (Homo sapiens, UniProt P05177); assay: as §6; conditions: human, probe 7-ethoxyresorufin (O-deethylation, EROD)
# T8 sequence (P05177 whole entry): T7 sequence (P05177 whole entry)
# Sequence of Cytochrome P450 3A5 (P20815 whole entry): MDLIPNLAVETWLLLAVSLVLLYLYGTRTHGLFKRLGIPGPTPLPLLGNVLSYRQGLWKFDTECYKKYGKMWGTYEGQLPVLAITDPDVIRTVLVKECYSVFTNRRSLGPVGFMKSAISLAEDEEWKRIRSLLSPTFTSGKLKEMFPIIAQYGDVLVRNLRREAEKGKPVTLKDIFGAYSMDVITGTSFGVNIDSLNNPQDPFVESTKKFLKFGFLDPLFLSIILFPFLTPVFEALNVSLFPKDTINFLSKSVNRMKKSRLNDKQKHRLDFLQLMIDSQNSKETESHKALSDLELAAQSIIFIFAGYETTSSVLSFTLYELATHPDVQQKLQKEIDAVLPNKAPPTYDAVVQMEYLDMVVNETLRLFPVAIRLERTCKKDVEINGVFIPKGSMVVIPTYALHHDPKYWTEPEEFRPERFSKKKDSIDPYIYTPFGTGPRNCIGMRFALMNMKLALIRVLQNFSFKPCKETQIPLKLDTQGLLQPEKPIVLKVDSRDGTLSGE
compound,measurement,setting,value
Cc1c(O)cccc1C(=O)N[C@@H](CSc1ccccc1)[C@H](O)CN1C[C@H]2CCCC[C@H]2C[C@H]1C(=O)NC(C)(C)C,Ki,Cytochrome P450 3A5,0.57 µM
CCN(CC)C(=S)SSC(=S)N(CC)CC,mechanism based inhibition,Cytochrome P450 2E1 [1],Cytochrome P450 mechanistic inhibitor: PMID 9695717
same,mechanism based inhibition,Cytochrome P450 2E1 [2],Cytochrome P450 mechanistic inhibitor: PMID 1664256
same,mechanism based inhibition,Cytochrome P450 2E1 [2]; human,Cytochrome P450 mechanistic inhibitor: PMID 10805064
CCc1c2c(nc3ccc(O)cc13)-c1cc3c(c(=O)n1C2)COC(=O)[C@]3(O)CC [7-ETHYL-10-HYDROXYCAMPTOTHECIN],kinact,CYP3A4 [3],0.00167 s⁻¹
same,Ki,Cytochrome P450 3A4 [4],26 µM
S=C=NCc1ccccc1 [BENZYL ISOTHIOCYANATE],kinact,CYP2B1,0.011 s⁻¹
same,Ki,Cytochrome P450 2B1 [5],5.8 µM
same,partition_ratio,Cytochrome P450 2B1 [6],9
C/C(=C\COc1c2ccoc2cc2oc(=O)ccc12)CCC(O)C(C)(C)O (centres undefined) [DIHYDROXYBERGAMOTTIN],kinact,CYP3A4 [7],0.001 s⁻¹
same,Ki,Cytochrome P450 3A4 [8],5.56 µM
same,kinact,CYP3A4 [3],0.00267 s⁻¹
same,Ki,Cytochrome P450 3A4 [4],59 µM
same,mechanism based inhibition,Cytochrome P450 3A4 [9],Cytochrome P450 mechanistic inhibitor: PMID 10859150
CCN(CC)C(=S)S [DITIOCARB],mechanism based inhibition,Cytochrome P450 2E1 [1],Cytochrome P450 mechanistic inhibitor: PMID 9695717
same,mechanism based inhibition,Cytochrome P450 2A6,Cytochrome P450 mechanistic inhibitor: PMID 9695717
CN1CCN(C(=O)N[C@@H](Cc2ccccc2)C(=O)N[C@H](/C=C/S(=O)(=O)c2ccccc2)CCc2ccccc2)CC1 [K-777],mechanism based inhibition,Cytochrome P450 3A4 [10],Cytochrome P450 mechanistic inhibitor: PMID 11038163
CN(C)c1ccc([C@H]2C[C@@]3(C)[C@@H](CC[C@@]3(O)/C=C\CO)[C@@H]3CCC4=CC(=O)CCC4=C32)cc1 [LILOPRISTONE],mechanism based inhibition,Cytochrome P450 3A4 [11],Cytochrome P450 mechanistic inhibitor: PMID 9697076
COc1c2occc2cc2ccc(=O)oc12 [METHOXSALEN],mechanism based inhibition,Cytochrome P450 2A13,Cytochrome P450 mechanistic inhibitor: PMID 15579482
CCN(CC)CCNC(=O)c1cc(Cl)c(N)cc1OC [METOCLOPRAMIDE],Ki,Cytochrome P450 2D6,0.96 µM
same,kinact,CYP2D6,0.000433 s⁻¹
Cc1c(-c2cnccn2)ssc1=S [OLTIPRAZ],Ki,Cytochrome P450 1A2,9 µM
same,kinact,CYP1A2,0.00317 s⁻¹
CN(C)c1ccc([C@H]2C[C@]3(C)[C@@H](CC[C@]3(O)CCCO)[C@@H]3CCC4=CC(=O)CCC4=C32)cc1 [ONAPRISTONE],mechanism based inhibition,Cytochrome P450 3A4 [11],Cytochrome P450 mechanistic inhibitor: PMID 9697076
